Data as given in PMC8201645 (Journal of medicinal chemistry, 2020).
Like-named read-outs stand apart in the source and are kept apart here.

Legend:
[1] = molecular target: T1, PPARδ-LBD (Homo sapiens, UniProt Q03181)
T1 sequence (Q03181 211-439 limits assumed): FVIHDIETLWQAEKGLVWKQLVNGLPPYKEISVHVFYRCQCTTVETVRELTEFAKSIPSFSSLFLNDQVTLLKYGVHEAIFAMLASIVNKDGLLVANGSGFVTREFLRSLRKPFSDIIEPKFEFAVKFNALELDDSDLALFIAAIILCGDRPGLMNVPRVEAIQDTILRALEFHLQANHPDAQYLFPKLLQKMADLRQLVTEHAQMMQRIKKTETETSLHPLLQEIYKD

[2] = molecular target: T1, PPARδ-LBD; remark: listed apart in the source
[3] = test system: hBM-MSCs; conditions: 10 μM cotreated with IDX medium for 5 d
[4] = molecular target: T2, PPARδ (Homo sapiens, UniProt Q03181); conditions: TR-FRET-based assay
T2 sequence (Q03181 171-441 limits assumed): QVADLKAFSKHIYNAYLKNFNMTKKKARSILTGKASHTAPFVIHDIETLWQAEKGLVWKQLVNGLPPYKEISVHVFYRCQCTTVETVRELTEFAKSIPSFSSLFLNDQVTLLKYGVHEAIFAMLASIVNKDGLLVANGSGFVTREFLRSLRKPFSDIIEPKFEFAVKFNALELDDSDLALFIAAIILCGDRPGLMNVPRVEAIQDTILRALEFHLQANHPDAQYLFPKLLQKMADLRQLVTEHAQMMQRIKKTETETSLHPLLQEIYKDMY

[5] = molecular target: T3, human A3AR (Homo sapiens, UniProt P0DMS8); conditions: at 10 μM; previously reported; cited from earlier work
T3 sequence (P0DMS8 1-318): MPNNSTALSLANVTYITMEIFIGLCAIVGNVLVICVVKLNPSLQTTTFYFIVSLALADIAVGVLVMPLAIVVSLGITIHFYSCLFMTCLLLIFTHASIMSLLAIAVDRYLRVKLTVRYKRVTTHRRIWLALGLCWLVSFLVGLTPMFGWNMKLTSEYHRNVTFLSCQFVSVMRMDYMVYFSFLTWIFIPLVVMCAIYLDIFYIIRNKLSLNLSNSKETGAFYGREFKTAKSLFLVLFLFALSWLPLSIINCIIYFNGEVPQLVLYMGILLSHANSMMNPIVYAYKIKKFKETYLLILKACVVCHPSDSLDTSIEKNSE

[6] = molecular target: T4, PPARγ (Homo sapiens, UniProt P37231); conditions: TR-FRET-based assay
T4 sequence (P37231 235-505 limits assumed): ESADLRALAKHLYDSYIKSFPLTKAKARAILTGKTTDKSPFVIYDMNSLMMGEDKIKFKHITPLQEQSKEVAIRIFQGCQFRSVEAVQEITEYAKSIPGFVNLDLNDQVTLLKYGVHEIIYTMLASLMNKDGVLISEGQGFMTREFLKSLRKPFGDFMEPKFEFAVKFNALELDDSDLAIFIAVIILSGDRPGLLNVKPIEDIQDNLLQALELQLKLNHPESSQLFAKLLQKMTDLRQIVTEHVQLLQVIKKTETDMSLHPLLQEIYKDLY

[7] = molecular target: T5, PPARγ-LBD (Homo sapiens, UniProt P37231); conditions: fluorescein-TRAP220/DRIP peptide
T5 sequence (P37231 238-503 limits assumed): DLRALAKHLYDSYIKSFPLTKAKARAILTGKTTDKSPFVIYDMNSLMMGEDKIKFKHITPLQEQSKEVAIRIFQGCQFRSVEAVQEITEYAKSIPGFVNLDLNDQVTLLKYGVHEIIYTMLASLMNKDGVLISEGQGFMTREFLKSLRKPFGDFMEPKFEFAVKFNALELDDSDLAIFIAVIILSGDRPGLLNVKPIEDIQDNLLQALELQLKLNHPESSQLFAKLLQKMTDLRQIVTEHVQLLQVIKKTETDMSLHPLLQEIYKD

[8] = molecular target: T3, human A3AR; conditions: at 10 μM

SMILES | interaction between PPARδ-LBD and corepressor peptide SMRT-ID2 [1] | recruitment of coactivator peptide C33 to PPARδ-LBD [2] | adiponectin production compared to the IDX vehicle control [3] | hA3AR % replacement [5] [% at 10 μM] | also measured
O[C@@H]1[C@H](O)CO[C@H]1Cn1cnc2c(NCc3cccc(Cl)c3)nc(Cl)nc21 [4n, (2S,3R,4R)-2-((2-Chloro-6-((3-chlorobenzyl)amino)-9H-purin-9-yl)methyl)tetrahydrofuran-3,4-diol] | significantly increased the interaction between PPARδ-LBD and the corepressor peptide | no effect on the recruitment of coactivator peptide | significantly promoted adiponectin production |  | 
O[C@@H]1[C@H](O)CS[C@H]1Cn1cnc2c(NCc3cccc(I)c3)nc(Cl)nc21 [4d, (2S,3R,4S)-2-((2-Chloro-6-((3-iodobenzyl)amino)-9H-purin-9-yl)-methyl)tetrahydrothiophene-3,4-diol] | significantly increased the interaction between PPARδ-LBD and the corepressor peptide | no effect on the recruitment of coactivator peptide |  | 10 | PPARδ corepressor recruitment in presence of PPARδ agonist 27 ([1]; 27 (1 μM), 4d (10 μM), 28 (1 μM)): significantly inhibited by 27; PPARδ-binding activity (in words) [4]: significant dual receptor-binding activity
CC#Cc1nc(NCc2cccc(F)c2)c2ncn(C[C@@H]3SC[C@@H](O)[C@H]3O)c2n1 [4i, (2S,3R,4S)-2-((6-((3-Fluorobenzyl)amino)-2-(prop-1-yn-1-yl)-9H-purin-9-yl)methyl)tetrahydrothiophene-3,4-diol] |  |  | significantly promoted adiponectin production |  | 
O[C@@H]1[C@H](O)CS[C@H]1Cn1cnc2c(NCc3cccc(Cl)c3)ncnc21 [4f, (2S,3R,4S)-2-((6-((3-Chlorobenzyl)amino)-9H-purin-9-yl)methyl)-tetrahydrothiophene-3,4-diol] |  |  |  | 9 | 
O[C@@H]1[C@H](O)CS[C@H]1Cn1cnc2c(NCc3cccc(Br)c3)nc(Cl)nc21 [4c, (2S,3R,4S)-2-((6-((3-Bromobenzyl)amino)-2-chloro-9H-purin-9-yl)methyl)tetrahydrothiophene-3,4-diol] | significantly increased the interaction between PPARδ-LBD and the corepressor peptide | no effect on the recruitment of coactivator peptide | significantly promoted adiponectin production | 21 | PPARγ-binding activity (in words) [6]: significant dual receptor-binding activity; PPARδ-binding activity (in words) [4]: significant dual receptor-binding activity
O[C@@H]1[C@H](O)CS[C@H]1Cn1cnc2c(NCc3cccc(F)c3)nc(Cl)nc21 [4a, (2S,3R,4S)-2-((2-Chloro-6-((3-fluorobenzyl)amino)-9H-purin-9-yl)methyl)tetrahydrothiophene-3,4-diol] | significantly increased the interaction between PPARδ-LBD and the corepressor peptide | no effect on the recruitment of coactivator peptide | significantly promoted adiponectin production | 17 | PPARγ-binding activity (in words) [6]: significant dual receptor-binding activity; PPARδ-binding activity (in words) [4]: significant dual receptor-binding activity
O[C@@H]1[C@H](O)CS[C@H]1Cn1cnc2c(NCc3cccc(I)c3)ncnc21 [4h, (2S,3R,4S)-2-((6-((3-Iodobenzyl)amino)-9H-purin-9-yl)methyl)-tetrahydrothiophene-3,4-diol] |  |  |  | 14 | 
CC#Cc1nc(NCc2cccc(Br)c2)c2ncn(C[C@@H]3SC[C@@H](O)[C@H]3O)c2n1 [4k, (2S,3R,4S)-2-((6-((3-Bromobenzyl)amino)-2-(prop-1-yn-1-yl)-9H-purin-9-yl)methyl)tetrahydrothiophene-3,4-diol] |  |  | significantly promoted adiponectin production |  | 
O[C@@H]1[C@H](O)CS[C@H]1Cn1cnc2c(NCc3cccc(Br)c3)ncnc21 [4g, (2S,3R,4S)-2-((6-((3-Bromobenzyl)amino)-9H-purin-9-yl)methyl)-tetrahydrothiophene-3,4-diol] |  |  |  | 6 | 
CC#Cc1nc(NCc2cccc(I)c2)c2ncn(C[C@@H]3SC[C@@H](O)[C@H]3O)c2n1 [4l, (2S,3R,4S)-2-((6-((3-Iodobenzyl)amino)-2-(prop-1-yn-1-yl)-9H-purin-9-yl)methyl)tetrahydrothiophene-3,4-diol] |  |  | significantly promoted adiponectin production |  | 
O[C@@H]1[C@H](O)CO[C@H]1Cn1cnc2c(NCc3cccc(Br)c3)nc(Cl)nc21 [4o, (2S,3R,4R)-2-((6-((3-Bromobenzyl)amino)-2-chloro-9H-purin-9-yl)methyl)tetrahydrofuran-3,4-diol] | significantly increased the interaction between PPARδ-LBD and the corepressor peptide | no effect on the recruitment of coactivator peptide | significantly promoted adiponectin production |  | 
CC#Cc1nc(NCc2cccc(Cl)c2)c2ncn(C[C@@H]3SC[C@@H](O)[C@H]3O)c2n1 [4j, (2S,3R,4S)-2-((6-((3-Chlorobenzyl)amino)-2-(prop-1-yn-1-yl)-9H-purin-9-yl)methyl)tetrahydrothiophene-3,4-diol] |  |  |  |  | coactivator peptide recruitment to PPARγ-LBD [7]: no statistical significance
O[C@@H]1[C@H](O)CO[C@H]1Cn1cnc2c(NCc3cccc(I)c3)nc(Cl)nc21 [4p, (2S,3R,4R)-2-((2-Chloro-6-((3-iodobenzyl)amino)-9H-purin-9-yl)-methyl)tetrahydrofuran-3,4-diol] |  |  |  |  | hA3AR % replacement [8]: 3% at 10 μM
O[C@@H]1[C@H](O)CS[C@H]1Cn1cnc2c(NCc3cccc(Cl)c3)nc(Cl)nc21 [4b, (2S,3R,4S)-2-((2-Chloro-6-((3-chlorobenzyl)amino)-9H-purin-9-yl)methyl)tetrahydrothiophene-3,4-diol] |  |  |  | 13 | 
O[C@@H]1[C@H](O)CS[C@H]1Cn1cnc2c(NCc3cccc(F)c3)ncnc21 [4e, (2S,3R,4S)-2-((6-((3-Fluorobenzyl)amino)-9H-purin-9-yl)methyl)-tetrahydrothiophene-3,4-diol] |  |  |  | 9 | 
